Test results published in patent publication US9809578B2, “Pyrazolyl urea, thiourea, guanidine and cyanoguanidine compounds as trkA kinase inhibitors” (Array BioPharma Inc., priority 2012, dated 2017).

Tests used:
Format in all cases: biochemical
Conditions in all cases: 10 μM, ATP near Km
[1] = molecular target: T1, HIPK1 (Homo sapiens, UniProt Q86Z02); assay: KinaseProfiler HIPK1
T1 construct: purchased Millipore, Inc. (KinaseProfiler service)
Description: (§1) The compound was run in duplicate at a concentration of ATP near the Km for each individual kinase according to Millipore's specifications.

[2] = molecular target: T2, PDK1 (Homo sapiens, UniProt O15530); assay: KinaseProfiler PDK1
T2 construct: purchased Millipore, Inc. (KinaseProfiler service)
Description: as §1

[3] = molecular target: T3, TLK2 (Homo sapiens, UniProt Q86UE8); assay: KinaseProfiler TLK2
T3 construct: purchased Millipore, Inc. (KinaseProfiler service)
Description: as §1

[4] = molecular target: T4, CHK2 (Homo sapiens, UniProt O96017); assay: KinaseProfiler CHK2
T4 construct: purchased Millipore, Inc. (KinaseProfiler service)
Description: as §1

[5] = molecular target: T5, CK1gamma1 (Homo sapiens, UniProt Q9HCP0); assay: KinaseProfiler CK1gamma1
T5 construct: purchased Millipore, Inc. (KinaseProfiler service)
Description: as §1

[6] = molecular target: T6, TAK1 (Homo sapiens, UniProt O43318); assay: KinaseProfiler TAK1
T6 construct: purchased Millipore, Inc. (KinaseProfiler service)
T6 sequence (O43318 1-303 limits assumed): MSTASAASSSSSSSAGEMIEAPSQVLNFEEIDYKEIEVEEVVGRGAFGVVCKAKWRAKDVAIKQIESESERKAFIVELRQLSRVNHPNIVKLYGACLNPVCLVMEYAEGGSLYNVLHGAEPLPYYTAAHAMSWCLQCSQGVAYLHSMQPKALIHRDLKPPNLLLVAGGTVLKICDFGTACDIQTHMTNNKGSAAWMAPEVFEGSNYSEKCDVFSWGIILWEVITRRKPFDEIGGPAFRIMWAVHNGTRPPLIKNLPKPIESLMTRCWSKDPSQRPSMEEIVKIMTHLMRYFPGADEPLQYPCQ
Description: as §1

[7] = molecular target: T7, SRC (Homo sapiens, UniProt P12931); assay: KinaseProfiler SRC
T7 construct: purchased Millipore, Inc. (KinaseProfiler service)
Description: as §1

[8] = molecular target: T8, TBK1 (Homo sapiens, UniProt Q9UHD2); assay: KinaseProfiler TBK1
T8 construct: purchased Millipore, Inc. (KinaseProfiler service)
Description: as §1

[9] = molecular target: T9, MAPKAP-K5 (Homo sapiens, UniProt Q8IW41); assay: KinaseProfiler MAPKAP-K5
T9 construct: purchased Millipore, Inc. (KinaseProfiler service)
Description: as §1

[10] = molecular target: T10, PKCalpha (Homo sapiens, UniProt P17252); assay: KinaseProfiler PKCalpha
T10 construct: purchased Millipore, Inc. (KinaseProfiler service)
Description: as §1

[11] = molecular target: T11, FGFR2 (Homo sapiens, UniProt P21802); assay: KinaseProfiler FGFR2
T11 construct: purchased Millipore, Inc. (KinaseProfiler service)
Description: as §1

[12] = molecular target: T12, DAPK3 (Homo sapiens, UniProt O43293); assay: KinaseProfiler DAPK3
T12 construct: purchased Millipore, Inc. (KinaseProfiler service)
Description: as §1

[13] = molecular target: T13, EphB4 (Homo sapiens, UniProt P54760); assay: KinaseProfiler EphB4
T13 construct: purchased Millipore, Inc. (KinaseProfiler service)
Description: as §1

[14] = molecular target: T14, Tie2 (Homo sapiens, UniProt Q02763); assay: KinaseProfiler Tie2
T14 construct: purchased Millipore, Inc. (KinaseProfiler service)
Description: as §1

[15] = molecular target: T15, NEK11 (Homo sapiens, UniProt Q8NG66); assay: KinaseProfiler NEK11
T15 construct: purchased Millipore, Inc. (KinaseProfiler service)
Description: as §1

[16] = molecular target: T16, PDGFRbeta (Homo sapiens, UniProt P09619); assay: KinaseProfiler PDGFRbeta
T16 construct: purchased Millipore, Inc. (KinaseProfiler service)
Description: as §1

[17] = molecular target: T17, DYRK2 (Homo sapiens, UniProt Q92630); assay: KinaseProfiler DYRK2
T17 construct: purchased Millipore, Inc. (KinaseProfiler service)
Description: as §1

[18] = molecular target: T18, Haspin (Homo sapiens, UniProt Q8TF76); assay: KinaseProfiler Haspin
T18 construct: purchased Millipore, Inc. (KinaseProfiler service)
Description: as §1

[19] = molecular target: T19, MKK7beta (Homo sapiens, UniProt O14733); assay: KinaseProfiler MKK7beta
T19 construct: purchased Millipore, Inc. (KinaseProfiler service)
Description: as §1

[20] = molecular target: T20, AMPK(A1/B1/G1) (Homo sapiens, UniProt Q13131); assay: KinaseProfiler AMPK(A1/B1/G1)
T20 construct: purchased Millipore (KinaseProfiler service)
Description: as §1

[21] = molecular target: T21, MRCKbeta (Homo sapiens, UniProt Q9Y5S2); assay: KinaseProfiler MRCKbeta
T21 construct: purchased Millipore, Inc. (KinaseProfiler service)
T21 sequence (Q9Y5S2 whole entry): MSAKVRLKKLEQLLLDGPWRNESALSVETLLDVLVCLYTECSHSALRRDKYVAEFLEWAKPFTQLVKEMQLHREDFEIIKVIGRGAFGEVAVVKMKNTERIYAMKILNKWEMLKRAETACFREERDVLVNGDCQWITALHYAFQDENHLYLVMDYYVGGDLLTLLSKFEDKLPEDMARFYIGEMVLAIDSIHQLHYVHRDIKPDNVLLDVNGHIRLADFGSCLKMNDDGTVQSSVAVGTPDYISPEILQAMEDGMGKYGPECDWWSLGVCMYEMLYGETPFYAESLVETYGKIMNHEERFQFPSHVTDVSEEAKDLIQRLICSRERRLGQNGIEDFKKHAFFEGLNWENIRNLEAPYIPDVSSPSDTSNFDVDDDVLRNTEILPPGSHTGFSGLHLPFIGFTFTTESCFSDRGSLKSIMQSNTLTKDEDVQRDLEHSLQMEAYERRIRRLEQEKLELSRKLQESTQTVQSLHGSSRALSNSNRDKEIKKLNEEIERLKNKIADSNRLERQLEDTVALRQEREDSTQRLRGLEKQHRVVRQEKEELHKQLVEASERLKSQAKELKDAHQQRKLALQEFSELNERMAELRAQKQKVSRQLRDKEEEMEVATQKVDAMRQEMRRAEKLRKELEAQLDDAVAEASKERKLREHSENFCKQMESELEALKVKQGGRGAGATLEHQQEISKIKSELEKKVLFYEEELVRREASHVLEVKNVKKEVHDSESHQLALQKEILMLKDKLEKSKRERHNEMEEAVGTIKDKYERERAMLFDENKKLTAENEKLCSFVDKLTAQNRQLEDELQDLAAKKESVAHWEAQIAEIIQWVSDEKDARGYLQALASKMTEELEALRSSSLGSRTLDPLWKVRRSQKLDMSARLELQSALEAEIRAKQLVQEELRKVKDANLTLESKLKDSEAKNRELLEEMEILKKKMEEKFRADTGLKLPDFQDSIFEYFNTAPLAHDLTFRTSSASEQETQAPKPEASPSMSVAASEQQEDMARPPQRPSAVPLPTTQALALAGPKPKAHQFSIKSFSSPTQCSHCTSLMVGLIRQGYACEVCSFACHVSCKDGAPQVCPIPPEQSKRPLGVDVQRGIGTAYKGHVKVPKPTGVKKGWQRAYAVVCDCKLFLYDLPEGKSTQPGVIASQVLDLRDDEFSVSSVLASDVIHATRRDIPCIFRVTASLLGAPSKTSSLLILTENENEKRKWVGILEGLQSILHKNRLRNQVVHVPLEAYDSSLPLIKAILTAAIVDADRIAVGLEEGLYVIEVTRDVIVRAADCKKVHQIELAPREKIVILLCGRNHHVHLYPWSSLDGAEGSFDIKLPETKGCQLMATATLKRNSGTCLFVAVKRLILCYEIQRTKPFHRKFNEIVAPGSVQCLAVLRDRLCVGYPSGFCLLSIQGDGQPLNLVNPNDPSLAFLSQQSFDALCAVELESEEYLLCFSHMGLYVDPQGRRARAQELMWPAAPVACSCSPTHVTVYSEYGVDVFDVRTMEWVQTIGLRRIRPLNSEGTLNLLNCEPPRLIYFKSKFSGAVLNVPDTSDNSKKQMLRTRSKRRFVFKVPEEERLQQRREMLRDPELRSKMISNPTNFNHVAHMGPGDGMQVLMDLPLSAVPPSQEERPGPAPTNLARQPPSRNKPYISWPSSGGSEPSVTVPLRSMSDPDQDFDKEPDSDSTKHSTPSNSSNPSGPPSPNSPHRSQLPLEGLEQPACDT
Description: as §1

[22] = molecular target: T22, p38alpha (Homo sapiens, UniProt Q16539); assay: KinaseProfiler p38alpha
T22 construct: purchased Millipore, Inc. (KinaseProfiler service)
Description: as §1

[23] = molecular target: T23, ROCK-I (Homo sapiens, UniProt Q13464); assay: KinaseProfiler ROCK-I
T23 construct: purchased Millipore, Inc. (KinaseProfiler service)
Description: as §1

[24] = molecular target: T24, GSK3beta (Homo sapiens, UniProt P49841); assay: KinaseProfiler GSK3beta
T24 construct: purchased Millipore, Inc. (KinaseProfiler service)
Description: as §1

[25] = molecular target: T25, PRKG1alpha (Homo sapiens, UniProt Q13976); assay: KinaseProfiler PRKG1alpha
T25 construct: purchased Millipore, Inc. (KinaseProfiler service)
Description: as §1

[26] = molecular target: T26, GRK6 (Homo sapiens, UniProt P43250); assay: KinaseProfiler GRK6
T26 construct: purchased Millipore, Inc. (KinaseProfiler service)
Description: as §1

[27] = molecular target: T27, CK2alpha2 (Homo sapiens, UniProt P19784); assay: KinaseProfiler CK2alpha2
T27 construct: purchased Millipore, Inc. (KinaseProfiler service)
Description: as §1

[28] = molecular target: T28, ROCK-II (Homo sapiens, UniProt O75116); assay: KinaseProfiler ROCK-II
T28 construct: purchased Millipore, Inc. (KinaseProfiler service)
Description: as §1

[29] = molecular target: T29, Plk2 (Homo sapiens, UniProt Q9NYY3); assay: KinaseProfiler Plk2
T29 construct: purchased Millipore, Inc. (KinaseProfiler service)
Description: as §1

[30] = molecular target: T30, LOK (Homo sapiens, UniProt O94804); assay: KinaseProfiler LOK
T30 construct: purchased Millipore, Inc. (KinaseProfiler service)
Description: as §1

[31] = molecular target: T31, EphA2 (Homo sapiens, UniProt P29317); assay: KinaseProfiler EphA2
T31 construct: purchased Millipore, Inc. (KinaseProfiler service)
Description: as §1

[32] = molecular target: T32, CDK9/cyclinT1 (Homo sapiens, UniProt P50750); assay: KinaseProfiler CDK9/cyclinT1
T32 construct: purchased Millipore, Inc. (KinaseProfiler service)
T32 sequence (P50750 whole entry): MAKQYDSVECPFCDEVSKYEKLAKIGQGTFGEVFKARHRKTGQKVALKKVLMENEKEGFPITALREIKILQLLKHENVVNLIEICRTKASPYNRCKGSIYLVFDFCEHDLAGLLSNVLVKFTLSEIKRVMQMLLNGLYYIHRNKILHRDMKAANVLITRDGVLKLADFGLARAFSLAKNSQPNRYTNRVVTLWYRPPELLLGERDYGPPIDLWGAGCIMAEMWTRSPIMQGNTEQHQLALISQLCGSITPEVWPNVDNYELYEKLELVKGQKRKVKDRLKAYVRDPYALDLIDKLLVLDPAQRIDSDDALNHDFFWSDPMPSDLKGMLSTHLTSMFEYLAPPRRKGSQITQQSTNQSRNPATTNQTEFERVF
T32 sequence (O60563 whole entry partner): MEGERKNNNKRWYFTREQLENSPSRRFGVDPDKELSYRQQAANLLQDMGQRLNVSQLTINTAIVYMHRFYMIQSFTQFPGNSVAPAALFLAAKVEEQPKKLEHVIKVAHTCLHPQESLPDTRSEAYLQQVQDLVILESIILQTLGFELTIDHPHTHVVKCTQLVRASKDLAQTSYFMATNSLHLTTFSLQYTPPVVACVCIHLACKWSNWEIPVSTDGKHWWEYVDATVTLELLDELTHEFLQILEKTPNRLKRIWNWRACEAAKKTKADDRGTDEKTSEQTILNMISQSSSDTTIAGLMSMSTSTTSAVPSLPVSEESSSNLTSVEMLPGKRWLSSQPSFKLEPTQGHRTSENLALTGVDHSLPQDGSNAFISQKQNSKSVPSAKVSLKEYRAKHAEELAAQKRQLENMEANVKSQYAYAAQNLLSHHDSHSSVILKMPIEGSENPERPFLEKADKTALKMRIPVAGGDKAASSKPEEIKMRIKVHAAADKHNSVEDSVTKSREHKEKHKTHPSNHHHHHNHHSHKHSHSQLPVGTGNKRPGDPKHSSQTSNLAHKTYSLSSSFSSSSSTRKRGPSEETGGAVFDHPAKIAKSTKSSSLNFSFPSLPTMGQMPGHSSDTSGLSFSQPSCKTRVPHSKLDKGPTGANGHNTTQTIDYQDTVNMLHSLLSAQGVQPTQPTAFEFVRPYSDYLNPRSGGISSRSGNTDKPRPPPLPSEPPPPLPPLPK
Description: as §1

[33] = molecular target: T33, MSSK1 (Homo sapiens, UniProt Q9UPE1); assay: KinaseProfiler MSSK1
T33 construct: purchased Millipore, Inc. (KinaseProfiler service)
T33 sequence (Q9UPE1 whole entry): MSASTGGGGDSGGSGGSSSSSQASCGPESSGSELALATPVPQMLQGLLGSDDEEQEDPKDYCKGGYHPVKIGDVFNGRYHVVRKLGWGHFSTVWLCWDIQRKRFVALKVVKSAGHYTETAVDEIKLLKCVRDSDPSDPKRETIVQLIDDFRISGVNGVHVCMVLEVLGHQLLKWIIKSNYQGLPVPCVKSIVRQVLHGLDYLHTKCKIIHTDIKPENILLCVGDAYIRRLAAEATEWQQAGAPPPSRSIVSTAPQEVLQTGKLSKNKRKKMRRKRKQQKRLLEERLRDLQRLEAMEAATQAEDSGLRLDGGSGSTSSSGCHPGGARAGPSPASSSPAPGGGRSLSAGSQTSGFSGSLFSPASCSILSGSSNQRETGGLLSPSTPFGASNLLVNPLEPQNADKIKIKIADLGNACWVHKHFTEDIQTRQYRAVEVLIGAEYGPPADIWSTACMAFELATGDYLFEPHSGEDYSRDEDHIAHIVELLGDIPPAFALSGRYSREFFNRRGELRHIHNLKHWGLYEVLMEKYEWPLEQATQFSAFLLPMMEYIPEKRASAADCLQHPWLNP
Description: as §1

[34] = molecular target: T34, PKCbetaI (Homo sapiens, UniProt P05771); assay: KinaseProfiler PKCbetaI
T34 construct: purchased Millipore, Inc. (KinaseProfiler service)
Description: as §1

[35] = molecular target: T35, PKAC-alpha (Homo sapiens, UniProt P17612); assay: KinaseProfiler PKAC-alpha
T35 construct: purchased Millipore, Inc. (KinaseProfiler service)
Description: as §1

[36] = molecular target: T36, MKNK2 (Homo sapiens, UniProt Q9HBH9); assay: KinaseProfiler MKNK2
T36 construct: purchased Millipore, Inc. (KinaseProfiler service)
Description: as §1

[37] = molecular target: T37, IRR (Homo sapiens, UniProt P14616); assay: KinaseProfiler IRR
T37 construct: purchased Millipore, Inc. (KinaseProfiler service)
Description: as §1

[38] = molecular target: T38, SGK2 (Homo sapiens, UniProt Q9HBY8); assay: KinaseProfiler SGK2
T38 construct: purchased Millipore, Inc. (KinaseProfiler service)
Description: as §1

[39] = molecular target: T39, Ros (Homo sapiens, UniProt P08922); assay: KinaseProfiler Ros
T39 construct: purchased Millipore, Inc. (KinaseProfiler service)
Description: as §1

[40] = molecular target: T40, CK2 (Homo sapiens, UniProt P68400); assay: KinaseProfiler CK2
T40 construct: purchased Millipore, Inc. (KinaseProfiler service)
T40 sequence (P68400 whole entry): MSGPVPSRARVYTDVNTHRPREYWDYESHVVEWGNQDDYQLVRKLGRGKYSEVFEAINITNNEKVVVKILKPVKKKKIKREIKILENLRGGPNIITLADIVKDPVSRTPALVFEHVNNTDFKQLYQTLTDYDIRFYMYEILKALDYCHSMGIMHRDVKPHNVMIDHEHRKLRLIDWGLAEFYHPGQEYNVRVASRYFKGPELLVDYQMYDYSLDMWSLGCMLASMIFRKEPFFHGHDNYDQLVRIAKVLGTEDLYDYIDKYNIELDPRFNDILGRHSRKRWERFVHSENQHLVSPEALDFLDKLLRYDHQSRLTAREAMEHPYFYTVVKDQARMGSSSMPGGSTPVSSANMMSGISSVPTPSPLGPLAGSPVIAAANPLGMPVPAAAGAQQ
T40 sequence (P67870 whole entry partner): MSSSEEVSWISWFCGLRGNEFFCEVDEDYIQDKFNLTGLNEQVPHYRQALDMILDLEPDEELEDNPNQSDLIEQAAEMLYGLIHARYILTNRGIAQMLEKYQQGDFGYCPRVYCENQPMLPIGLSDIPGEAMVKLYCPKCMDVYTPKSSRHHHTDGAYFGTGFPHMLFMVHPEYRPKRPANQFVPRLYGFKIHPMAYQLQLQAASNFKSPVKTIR
Description: as §1

[41] = molecular target: T41, IKKbeta (Homo sapiens, UniProt O14920); assay: KinaseProfiler IKKbeta
T41 construct: purchased Millipore, Inc. (KinaseProfiler service)
T41 sequence (O14920 whole entry): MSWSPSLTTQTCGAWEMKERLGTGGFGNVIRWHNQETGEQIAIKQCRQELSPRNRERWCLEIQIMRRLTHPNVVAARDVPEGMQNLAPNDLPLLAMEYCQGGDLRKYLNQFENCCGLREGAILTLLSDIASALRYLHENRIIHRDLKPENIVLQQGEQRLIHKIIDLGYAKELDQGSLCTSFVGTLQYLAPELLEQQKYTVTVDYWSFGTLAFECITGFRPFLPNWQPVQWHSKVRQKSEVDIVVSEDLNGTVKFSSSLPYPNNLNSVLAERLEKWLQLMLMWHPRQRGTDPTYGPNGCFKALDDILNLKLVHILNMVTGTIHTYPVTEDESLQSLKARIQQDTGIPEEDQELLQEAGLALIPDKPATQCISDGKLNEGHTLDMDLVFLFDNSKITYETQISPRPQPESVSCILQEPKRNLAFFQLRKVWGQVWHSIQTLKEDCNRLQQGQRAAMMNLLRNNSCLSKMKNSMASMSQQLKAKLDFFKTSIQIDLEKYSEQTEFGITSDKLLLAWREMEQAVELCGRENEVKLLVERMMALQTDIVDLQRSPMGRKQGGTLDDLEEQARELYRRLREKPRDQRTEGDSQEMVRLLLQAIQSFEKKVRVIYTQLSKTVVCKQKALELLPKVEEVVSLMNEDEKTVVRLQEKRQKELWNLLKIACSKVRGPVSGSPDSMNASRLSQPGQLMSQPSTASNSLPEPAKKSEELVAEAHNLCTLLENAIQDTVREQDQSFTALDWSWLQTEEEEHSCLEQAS
Description: as §1

[42] = molecular target: T42, JAK3 (Homo sapiens, UniProt P52333); assay: KinaseProfiler JAK3
T42 construct: purchased Millipore, Inc. (KinaseProfiler service)
Description: as §1

[43] = molecular target: T43, CDK2/cyclinA (Homo sapiens, UniProt P24941); assay: KinaseProfiler CDK2/cyclinA
T43 construct: purchased Millipore, Inc. (KinaseProfiler service)
Description: as §1

Cc1c(-c2cnn(C)c2)nn(-c2ccccc2)c1NC(=O)Nc1cc(C(F)(F)F)nn1-c1ccccc1 [Example 3, 1-(1′,4-dimethyl-1-phenyl-1H,1′H-[3,4′-bipyrazol]-5-yl)-3-(1-phenyl-3-(trifluoromethyl)-1H-pyrazol-5-yl)urea]
Avg POC [1]: 115.5 POC
Avg POC [2]: 123 POC
Avg POC [3]: 108.5 POC
Avg POC [4]: 126.5 POC
Avg POC [5]: 112 POC
Avg POC [6]: 94 POC
Avg POC [7]: 102.5 POC
Avg POC [8]: 103 POC
Avg POC [9]: 108.5 POC
Avg POC [10]: 104 POC
Avg POC [11]: 110 POC
Avg POC [12]: 118.5 POC
Avg POC [13]: 116 POC
Avg POC [14]: 121.5 POC
Avg POC [15]: 110 POC
Avg POC [16]: 175 POC
Avg POC [17]: 92.5 POC
Avg POC [18]: 121 POC
Avg POC [19]: 143.5 POC
Avg POC [20]: 149.5 POC
Avg POC [21]: 121.5 POC
Avg POC [22]: 93 POC
Avg POC [23]: 115 POC
Avg POC [24]: 195 POC
Avg POC [25]: 108 POC
Avg POC [26]: 105 POC
Avg POC [27]: 102.5 POC
Avg POC [28]: 110 POC
Avg POC [29]: 106 POC
Avg POC [30]: 97.5 POC
Avg POC [31]: 120 POC
Avg POC [32]: 107.5 POC
Avg POC [33]: 140 POC
Avg POC [34]: 87 POC
Avg POC [35]: 136.5 POC
Avg POC [36]: 99 POC
Avg POC [37]: 99.5 POC
Avg POC [38]: 159.5 POC
Avg POC [39]: 97 POC
Avg POC [40]: 96.5 POC
Avg POC [41]: 123 POC
Avg POC [42]: 117.5 POC
Avg POC [43]: 100.5 POC
